Each structure is given as a SMILES string.

The target in assay [1] is T1, CYP3A4 (Homo sapiens, UniProt P08684).
T1 construct: 0.1 mg/mL human liver microsomes; from tissue; host or cells: human liver microsomes
Description: IC50 against CYP3A4 by inhibition of testosterone metabolism in human liver microsomes. The class given is biochemical. As to conditions: 0.1 mg/mL human liver microsomes, 25 μM testosterone, 1 mM NADPH, 6-β-OH-testosterone production, eight minutes; read-out: IC50, μM (HLM, testosterone). As for the experimental part:
2. Determination of IC50 Against CYP3A4 by Measurement of Inhibition of Testosterone Metabolism
This assay was performed using a standard 96 well plate design. […] Quantitation of metabolite peak area ratio against an internal standard is determined by LC-MS/MS analysis. The production of 6-β-OH-testosterone from testosterone metabolism is determined after incubation for eight minutes by comparison to a standard curve generated for the metabolite
Samples were analyzed in the MRM mode using a Sciex API 3000 mass spectrometer (Applied Biosystems, Foster City, Calif.) with a Paradigm MS4 binary pump (Michrom BioResources Inc., Auburn, Calif.) and a LEAP CTC PAL autosampler (LEAP Technologies, Carrboro, N.C.). A Phenomenex Synergi, 4μ, Polar-RP, 10×2.0 mm column (Phenomenex, Torrance, Calif.) was used for separation with a mobile phase composition of: 0.1% formic acid in water (A) and: 0.1% formic acid in methanol (B). The following gradient was used: […]
The sample injection volume was 10 μL and flow was split post-column with 0.4 mL/min going to the mass spectrometer. Analysis was performed using the following API 3000 mass spectrometer settings: […]
In general terms: Liver microsomes are a subcellular fraction often used to study metabolism.

Assay [2] concerns the target T2, recombinant CYP3A4-b5 enzyme (Baculosomes®) (Homo sapiens, UniProt P08684).
T2 construct: purchased Invitrogen (Carlsbad, Calif.)
Description: Kiapp against recombinant CYP3A4 enzyme (Baculosomes), BFC substrate. The class given is biochemical. As to conditions: recombinant CYP3A4-b5 (Invitrogen), 5 uM BFC, 200 uM NADPH, pre-incubation at least 30 minutes, pH 7.0, room temperature. As for the experimental part:
1. Determination of Compound Kiapp
A determination of the Kiapp of the compounds of the invention against recombinant CYP3A4 enzyme was performed as follows. The assay was performed in a 100 mM sodium phosphate buffer pH 7.0, 5 mM TCEP and containing 2% dimethylformamide (final concentration) upon addition of substrate and inhibitor. A typical reaction for the determination of Kiapp values was carried at room temperature in a solid black Costar u-bottom 96-well polypropylene plate. […] When pre-incubation was completed (˜30 min), the reaction was initiated by adding NADPH (200 uM, final concentration), and 7-benzyloxy-4-(trifluoromethyl)-coumarin (BFC) (5 uM, final concentration). The oxidation of the coumarin substrate was recorded by a 96-well plate reader POLARstar (BMG LABTECH, Offenburg, Germany).
The initial reaction velocities were measured during the first 5 min of the reaction when the release of the fluorescent product is linear with time, in the absence and in the presence of various concentrations of inhibitors.
The fluorescent substrate BFC was purchased from Sigma (St Louis, Mo.). Two commercial sources of recombinant enzymes were used in this study: recombinant CYP3A4-b5 enzyme (Baculosomes®) was purchased from Invitrogen (Carlsbad, Calif.) and the recombinant CYP3A4+b5 enzyme (Supersomes®) was purchased from BD Biosciences (Woburn, Mass.).

T2 sequence (P08684 whole entry): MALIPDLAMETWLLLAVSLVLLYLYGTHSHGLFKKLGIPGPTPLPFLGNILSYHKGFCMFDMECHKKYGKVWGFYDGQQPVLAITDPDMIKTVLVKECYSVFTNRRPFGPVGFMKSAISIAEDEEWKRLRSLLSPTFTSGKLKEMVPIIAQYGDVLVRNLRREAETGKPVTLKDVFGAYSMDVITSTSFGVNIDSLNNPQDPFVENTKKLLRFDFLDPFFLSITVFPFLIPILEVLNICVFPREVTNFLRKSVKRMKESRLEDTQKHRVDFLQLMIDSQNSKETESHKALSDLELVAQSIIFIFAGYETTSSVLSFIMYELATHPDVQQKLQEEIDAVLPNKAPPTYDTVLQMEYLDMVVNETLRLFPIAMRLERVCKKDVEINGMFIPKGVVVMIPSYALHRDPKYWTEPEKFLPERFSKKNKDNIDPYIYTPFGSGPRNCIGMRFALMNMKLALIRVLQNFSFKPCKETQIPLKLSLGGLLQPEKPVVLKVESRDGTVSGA
T1 sequence (P08684 whole entry): as above

For the compound `COC(=O)Cn1nc(-c2ccncc2)cc1Cc1ccc(F)cc1` [Example 2, methyl [5-(4-fluorobenzyl)-3-pyridin-4-yl-1H-pyrazol-1-yl]acetate], the IC50 (usually the concentration that gives 50% inhibition) in assay [1] is 0.956 µM. In addition, the Ki in assay [2] worked out at 0.13 µM.
For `CC(C)NC1CCN(C(=O)Cn2nc(-c3ccncc3)cc2Cc2ccc(F)cc2)CC1` [Example 9, 1-{[5-(4-fluorobenzyl)-3-pyridin-4-yl-1H-pyrazol-1-yl]acetyl}-N-isopropylpiperidin-4-amine], in assay [1], the half-inhibitory concentration (IC50) turned out to be 0.056 µM. Besides, the Ki in assay [2] amounted to 0.202 µM.
The like results for `O=C(NC1CCN(C(=O)Cn2nc(-c3ccncc3)cc2Cc2ccc(F)cc2)CC1)C1CCC1` [Example 18, N-(1-{2-[5-(4-fluorobenzyl)-3-pyridin-4-yl-1H-pyrazol-1-yl]acetyl}piperidin-4-yl)cyclobutanecarboxamide] were, in that order, 0.018 µM and 0.0706 µM.
The like results for `OCCn1nc(-c2ccncc2)cc1Cc1ccc(F)cc1` [Example 29, 2-[5-(4-fluorobenzyl)-3-pyridin-4-yl-1H-pyrazol-1-yl]ethanol] were, in that order, 0.054 µM and 0.159 µM.
The like results for `O=C(Cn1nc(-c2ccncc2)cc1Cc1ccc(F)cc1)NCCc1cnccn1` [Example 78, 2-[5-(4-fluorobenzyl)-3-pyridin-4-yl-1H-pyrazol-1-yl]-N-(2-pyrazin-2-ylethyl)acetamide] were, in that order, 0.04 µM and 0.0834 µM.
Regarding `C[C@H](CO)NC(=O)Cn1nc(-c2ccncc2)cc1Cc1ccc(F)cc1` [Example 94, 2-[5-(4-fluorobenzyl)-3-pyridin-4-yl-1H-pyrazol-1-yl]-N-[(1R)-2-hydroxy-1-methylethyl]acetamide], in assay [1], the half-inhibitory concentration (IC50) was 0.022 µM. The Ki in assay [2] came to 0.112 µM.
The corresponding values for `CC(C)C(=O)NC1CCN(C(=O)Cn2nc(-c3ccncc3)cc2Cc2ccc(F)cc2)CC1` [Example 104, N-(1-{[5-(4-fluorobenzyl)-3-pyridin-4-yl-1H-pyrazol-1-yl]acetyl}piperidin-4-yl)-2-methylpropanamide] are 0.046 µM and 0.106 µM.
`COC(=O)NC1CCN(C(=O)Cn2nc(-c3ccncc3)cc2Cc2ccc(F)cc2)CC1` [Example 105, methyl (1-{[5-(4-fluorobenzyl)-3-pyridin-4-yl-1H-pyrazol-1-yl]acetyl}piperidin-4-yl)carbamate]: the IC50 in assay [1] amounted to 0.036 µM. In assay [2], the Ki was 0.055 µM.
In the case of `CCNC(=O)NC1CCN(C(=O)Cn2nc(-c3ccncc3)cc2Cc2ccc(F)cc2)CC1` [Example 106, 1-ethyl-3-(1-{[5-(4-fluorobenzyl)-3-pyridin-4-yl-1H-pyrazol-1-yl]acetyl}piperidin-4-yl)urea], the 50% inhibitory concentration (IC50) in assay [1] was 0.023 µM. The Ki in assay [2] is 0.0782 µM.
The like results for `CNC(=O)NC1CCN(C(=O)Cn2nc(-c3ccncc3)cc2Cc2ccc(F)cc2)CC1` [Example 107, 1-(1-{[5-(4-fluorobenzyl)-3-pyridin-4-yl-1H-pyrazol-1-yl]acetyl}piperidin-4-yl)-3-methylurea] were, in that order, 0.029 µM and 0.165 µM.
The corresponding values for `O=C(Cn1nc(-c2c[nH]cn2)cc1Cc1ccc(F)cc1)N1CCN(c2ncccn2)CC1` [Example 108, 2-(4-{[5-(4-fluorobenzyl)-3-(1H-imidazol-4-yl)-1H-pyrazol-1-yl]acetyl}piperazin-1-yl)pyrimidine] are 0.241 µM and 0.0881 µM.
The corresponding values for `CC(=O)N(C)C1CCN(C(=O)Cn2nc(-c3ccncc3)cc2Cc2ccc(F)cc2)CC1` [Example 109, N-(1-{[5-(4-fluorobenzyl)-3-pyridin-4-yl-1H-pyrazol-1-yl]acetyl}piperidin-4-yl)-N-methylacetamide] are 0.036 µM and 0.0643 µM.
As to `CCS(=O)(=O)N(C)C1CCN(C(=O)Cn2nc(-c3ccncc3)cc2Cc2ccc(F)cc2)CC1` [Example 110, N-(1-{[5-(4-fluorobenzyl)-3-pyridin-4-yl-1H-pyrazol-1-yl]acetyl}piperidin-4-yl)-N-methylethane-sulfonamide], in assay [1], the IC50 was 0.016 µM. In addition, the Ki in assay [2] was determined as 0.0158 µM.

Source of the values: US7919488B2, “Therapeutic compounds” (Pfizer Inc., priority 2006, dated 2011).
